# “And” between values parts separate entries of the source, which are not always exact repeats. Equal entries are not always repeated.
# Assay: Phase 1 study: safety and tolerability
# Type: in vivo
# Description: The maximum tolerated dose (MTD) of DZD1516 was defined based on safety data and the Bayesian optimal interval (BOIN) design (Additional file 1). The definition of DLT is provided in Additional file 1.
# The AE grading was assessed according to the NCI-Common Terminology Criteria for Adverse Events (CTCAE) (version 5.0) and was monitored until 28 days after the last dose.
# Eligible patients received single oral dosing of DZD1516 on Cycle 0 Day 1 (C0D1), followed by a 7-day washout. Twice daily oral dosing (bid) of DZD1516 was commenced from C1D1 in a continuous 21-day cycle until disease progression, unacceptable toxicity, or withdrawal of consent. All doses were taken under fed conditions (within 30 minutes after a meal).
# Planned dosing consisted of 25, 50, 100, 200, 300, and 400 mg. Each dose escalation cohort will comprise a minimum of three and a maximum of six evaluable patients (except only one patient in the starting dose cohort). The maximum tolerated dose of DZD1516 was defined according to safety data and the Bayesian optimal interval (BOIN) design. Dose escalation/de-escalation rule with target toxicity rate for the MTD is 0.30 with interval of (0.20, 0.33).
# DLTs were any adverse event (AE) not clearly attributable to the patient’s disease, including ≥ grade 4 hematological toxicities present for ≥ 4 days, grade 3 thrombocytopenia with bleeding, or grade 4 thrombocytopenia lasting for > 5 days, ≥ grade 3 non-hematological toxicities that is dose-limiting in the judgment of the investigators. Any other toxicity that is greater than that at baseline, is clinically significant or unacceptable, and is judged to be a DLT by the SRC. Exceptions included alopecia of any grade and isolated grade 3 laboratory change without clinical sequelae or clinical significance.
# Safety evaluations were conducted at screening, on Day 1, 8, and 15 of Cycle 1, on Day 1 of each subsequent treatment cycle, at the end-of-treatment visit, and clinically indicated. Safety assessments included clinical laboratory measurements (hematology, chemistry, coagulation, and urinalysis), electrocardiogram (ECG), Echocardiogram/MUGA scan, ECOG performance status, vital signs, and physical examinations.
smiles,measurement,setting,value
COc1cc(O[C@H]2CCN(C)CC2(F)F)c2c(Nc3ccc(Oc4ccn5ncnc5c4)c(C)c3)ncnc2c1 [DZD1516],"Decreased appetite, ≥ Grade 3",300 mg (N = 4),0 (0.0) n (%)
same,"Dizziness, Any Grade",300 mg (N = 4),1 (25.0) n (%)
same,"Dizziness, ≥ Grade 3",300 mg (N = 4),1 (25.0) n (%)
same,Drug-related TEAE: Grade 3,300 mg (N = 4),2 (50.0) n (%)
same,Drug-related TEAE: Leading to death,300 mg (N = 4),0 (0.0) n (%)
same,Drug-related TEAE: Leading to dose reduction,300 mg (N = 4),3 (75.0) n (%)
same,Drug-related TEAE: Leading to treatment discontinuation,300 mg (N = 4),0 (0.0) n (%)
same,Drug-related TEAE: Leading to treatment interruption,300 mg (N = 4),2 (50.0) n (%)
same,Drug-related TEAE: SAE,300 mg (N = 4),0 (0.0) n (%)
same,"Fatigue, Any Grade",300 mg (N = 4),1 (25.0) n (%)
same,"Fatigue, ≥ Grade 3",300 mg (N = 4),1 (25.0) n (%)
same,"Gastrointestinal disorders, Any Grade",300 mg (N = 4),4 (100.0) n (%)
same,"Gastrointestinal disorders, ≥ Grade 3",300 mg (N = 4),1 (25.0) n (%)
same,"General disorders and administration site conditions, Any Grade",300 mg (N = 4),3 (75.0) n (%)
same,"General disorders and administration site conditions, ≥ Grade 3",300 mg (N = 4),2 (50.0) n (%)
same,"Headache, Any Grade",300 mg (N = 4),4 (100.0) n (%)
same,"Headache, ≥ Grade 3",300 mg (N = 4),0 (0.0) n (%)
same,"Hemoglobin decreased, Any Grade",300 mg (N = 4),0 (0.0) n (%)
same,"Hemoglobin decreased, ≥ Grade 3",300 mg (N = 4),0 (0.0) n (%)
same,"Investigations, Any Grade",300 mg (N = 4),1 (25.0) n (%)
same,"Investigations, ≥ Grade 3",300 mg (N = 4),0 (0.0) n (%)
same,"Lipase increased, Any Grade",300 mg (N = 4),0 (0.0) n (%)
same,"Lipase increased, ≥ Grade 3",300 mg (N = 4),0 (0.0) n (%)
same,"Malaise, Any Grade",300 mg (N = 4),1 (25.0) n (%)
same,"Malaise, ≥ Grade 3",300 mg (N = 4),1 (25.0) n (%)
same,"Metabolism and nutrition disorders, Any Grade",300 mg (N = 4),3 (75.0) n (%)
same,"Metabolism and nutrition disorders, ≥ Grade 3",300 mg (N = 4),0 (0.0) n (%)
same,"Musculoskeletal and connective tissue disorders, Any Grade",300 mg (N = 4),3 (75.0) n (%)
same,"Musculoskeletal and connective tissue disorders, ≥ Grade 3",300 mg (N = 4),1 (25.0) n (%)
same,"Nausea, Any Grade",300 mg (N = 4),4 (100.0) n (%)
same,"Nausea, ≥ Grade 3",300 mg (N = 4),1 (25.0) n (%)
same,"Nervous system disorders, Any Grade",300 mg (N = 4),4 (100.0) n (%)
same,"Nervous system disorders, ≥ Grade 3",300 mg (N = 4),2 (50.0) n (%)
same,"Participants with any TEAE, Any Grade",300 mg (N = 4),4 (100.0) n (%)
same,"Participants with any TEAE, ≥ Grade 3",300 mg (N = 4),3 (75.0) n (%)
same,"Platelet count decreased, Any Grade",300 mg (N = 4),0 (0.0) n (%)
same,"Platelet count decreased, ≥ Grade 3",300 mg (N = 4),0 (0.0) n (%)
same,"Proteinuria, Any Grade",300 mg (N = 4),1 (25.0) n (%)
same,"Proteinuria, ≥ Grade 3",300 mg (N = 4),0 (0.0) n (%)
same,"Renal and urinary disorders, Any Grade",300 mg (N = 4),1 (25.0) n (%)
same,"Renal and urinary disorders, ≥ Grade 3",300 mg (N = 4),0 (0.0) n (%)
same,Subjects with any TEAE,300 mg (N = 4),4 (100.0) n (%)
same,Subjects with any drug-related TEAE,300 mg (N = 4),4 (100.0) n (%)
same,"Vomiting, Any Grade",300 mg (N = 4),3 (75.0) n (%)
same,"Vomiting, ≥ Grade 3",300 mg (N = 4),1 (25.0) n (%)
same,"White blood cell count decreased, Any Grade",300 mg (N = 4),0 (0.0) n (%)
same,"White blood cell count decreased, ≥ Grade 3",300 mg (N = 4),0 (0.0) n (%)
same,diarrhea,300 mg cohort,A single case of grade 2 diarrhea
same,dose-limiting toxicities (DLTs),300 mg cohort,two out of four patients experienced DLTs
same,dose-limiting toxicity (DLT),25–200 mg cohorts,no dose-limiting toxicity (DLT) observed
same,diarrhea or skin rash,MTD (250 mg) or lower doses,No diarrhea or skin rash of any grade was observed
same,"Alanine aminotransferase increased, Any Grade",Total (N = 23),3 (13.0) n (%)
same,"Alanine aminotransferase increased, ≥ Grade 3",Total (N = 23),0 (0.0) n (%)
same,"Anemia, Any Grade",Total (N = 23),3 (13.0) n (%)
same,"Anemia, ≥ Grade 3",Total (N = 23),0 (0.0) n (%)
same,Any TEAE: Grade 3,Total (N = 23),6 n (%) and 6 (26.1) n (%)
same,Any TEAE: Leading to death,Total (N = 23),0 (0.0) n (%)
same,Any TEAE: Leading to dose reduction,Total (N = 23),3 n (%) and 3 (13.0) n (%)
same,Any TEAE: Leading to treatment discontinuation,Total (N = 23),1 (4.3) n (%)
same,Any TEAE: Leading to treatment interruption,Total (N = 23),5 n (%) and 5 (21.7) n (%)
same,Any TEAE: SAE,Total (N = 23),2 (8.7) n (%)
same,"Aspartate aminotransferase increased, Any Grade",Total (N = 23),5 (21.7) n (%)
same,"Aspartate aminotransferase increased, ≥ Grade 3",Total (N = 23),0 (0.0) n (%)
same,"Blood and lymphatic system disorders, Any Grade",Total (N = 23),3 (13.0) n (%)
same,"Blood and lymphatic system disorders, ≥ Grade 3",Total (N = 23),0 (0.0) n (%)
same,"Blood bilirubin increased, Any Grade",Total (N = 23),4 (17.4) n (%)
same,"Blood bilirubin increased, ≥ Grade 3",Total (N = 23),0 (0.0) n (%)
same,"Cardiac disorders, Any Grade",Total (N = 23),3 (13.0) n (%)
same,"Cardiac disorders, ≥ Grade 3",Total (N = 23),0 (0.0) n (%)
same,"Constipation, Any Grade",Total (N = 23),3 (13.0) n (%)
same,"Constipation, ≥ Grade 3",Total (N = 23),0 (0.0) n (%)
same,"Decreased appetite, Any Grade",Total (N = 23),4 (17.4) n (%)
same,"Decreased appetite, ≥ Grade 3",Total (N = 23),0 (0.0) n (%)
same,"Dizziness, Any Grade",Total (N = 23),3 (13.0) n (%)
same,"Dizziness, ≥ Grade 3",Total (N = 23),1 (4.3) n (%)
same,Drug-related TEAE: Grade 3,Total (N = 23),4 n (%) and 4 (17.4) n (%)
same,Drug-related TEAE: Leading to death,Total (N = 23),0 (0.0) n (%)
same,Drug-related TEAE: Leading to dose reduction,Total (N = 23),3 (13.0) n (%)
same,Drug-related TEAE: Leading to treatment discontinuation,Total (N = 23),0 (0.0) n (%)
same,Drug-related TEAE: Leading to treatment interruption,Total (N = 23),3 (13.0) n (%)
same,Drug-related TEAE: SAE,Total (N = 23),1 (4.3) n (%)
same,"Fatigue, Any Grade",Total (N = 23),4 (17.4) n (%)
same,"Fatigue, ≥ Grade 3",Total (N = 23),1 (4.3) n (%)
same,"Gastrointestinal disorders, Any Grade",Total (N = 23),10 (43.5) n (%)
same,"Gastrointestinal disorders, ≥ Grade 3",Total (N = 23),3 (13.0) n (%)
same,"General disorders and administration site conditions, Any Grade",Total (N = 23),8 (34.8) n (%)
same,"General disorders and administration site conditions, ≥ Grade 3",Total (N = 23),2 (8.7) n (%)
same,"Headache, Any Grade",Total (N = 23),10 (43.5) n (%)
same,"Headache, ≥ Grade 3",Total (N = 23),0 (0.0) n (%)
same,"Hemoglobin decreased, Any Grade",Total (N = 23),7 (30.4) n (%)
same,"Hemoglobin decreased, ≥ Grade 3",Total (N = 23),0 (0.0) n (%)
same,"Investigations, Any Grade",Total (N = 23),14 (60.9) n (%)
same,"Investigations, ≥ Grade 3",Total (N = 23),2 (8.7) n (%)
same,"Lipase increased, Any Grade",Total (N = 23),3 (13.0) n (%)
same,"Lipase increased, ≥ Grade 3",Total (N = 23),0 (0.0) n (%)
same,"Malaise, Any Grade",Total (N = 23),3 (13.0) n (%)
same,"Malaise, ≥ Grade 3",Total (N = 23),1 (4.3) n (%)
same,"Metabolism and nutrition disorders, Any Grade",Total (N = 23),11 (47.8) n (%)
same,"Metabolism and nutrition disorders, ≥ Grade 3",Total (N = 23),0 (0.0) n (%)
same,"Musculoskeletal and connective tissue disorders, Any Grade",Total (N = 23),7 (30.4) n (%)
same,"Musculoskeletal and connective tissue disorders, ≥ Grade 3",Total (N = 23),2 (8.7) n (%)
same,"Nausea, Any Grade",Total (N = 23),6 (26.1) n (%)
same,"Nausea, ≥ Grade 3",Total (N = 23),1 (4.3) n (%)
same,"Nervous system disorders, Any Grade",Total (N = 23),14 (60.9) n (%)
same,"Nervous system disorders, ≥ Grade 3",Total (N = 23),2 (8.7) n (%)
same,"Participants with any TEAE, Any Grade",Total (N = 23),22 (95.7) n (%)
same,"Participants with any TEAE, ≥ Grade 3",Total (N = 23),6 (26.1) n (%)
same,"Platelet count decreased, Any Grade",Total (N = 23),3 (13.0) n (%)
same,"Platelet count decreased, ≥ Grade 3",Total (N = 23),0 (0.0) n (%)
same,"Proteinuria, Any Grade",Total (N = 23),4 (17.4) n (%)
same,"Proteinuria, ≥ Grade 3",Total (N = 23),0 (0.0) n (%)
same,"Renal and urinary disorders, Any Grade",Total (N = 23),5 (21.7) n (%)
same,"Renal and urinary disorders, ≥ Grade 3",Total (N = 23),0 (0.0) n (%)
same,Subjects with any TEAE,Total (N = 23),22 (95.7) n (%)
same,Subjects with any drug-related TEAE,Total (N = 23),21 (91.3) n (%)
same,"Vomiting, Any Grade",Total (N = 23),8 (34.8) n (%)
same,"Vomiting, ≥ Grade 3",Total (N = 23),2 (8.7) n (%)
same,"White blood cell count decreased, Any Grade",Total (N = 23),3 (13.0) n (%)
same,"White blood cell count decreased, ≥ Grade 3",Total (N = 23),0 (0.0) n (%)
same,grade 4 or 5 AEs,all dose levels,No grade 4 or 5 AEs were reported
same,maximum tolerated dose (MTD),"patients, BID",250 mg

# From PMC10327353 (Breast Cancer Research : BCR, 2023)
